Reference: patent US10730890B2, “Phthalocyanine derivative consisting of a mixture of 4 isomers” (MOLTENI THERAPEUTICS S.R.L., priority 2009, dated 2020)

What was measured:
[1] = solubilisation of intermediate (II) in DMF and THF/MeOH 1/1, HPLC analysis of the solutions; assay type: physicochemical; conditions: 2 mg/ml, isomer B precipitates
Experimental: Experimental Proof of the Difficulty of Preparing Solutions of (II), Due to the Low Solubility of the Isomer B.
Two samples of the same batch of intermediate (II) are solubilised (2 mg/ml) in, DMF and THF/MeOH 1/1. The solutions are appropriately diluted and analysed in HPLC. […] This behaviour can lead to the preparation of samples having variable composition and, ultimately, to the production of not reliable analytical data including the ones concerning the other isomers

[2] = pharmacological and toxicological activity of product (I) compared with compounds (V) and (VI); conditions: new isomers distribution (low isomer B content) with respect to compounds (V) and (VI)

| Substance | solubility of the isomer B in comparison to the other isomers [1] | difference in terms of pharmacological and toxicological activity [2] |
| --- | --- | --- |
| [1,8(11),15(18),22(25)-tetrakis-(3-N,N-dimethylamino phenoxy)] Zinc Phthalocyaninate [isomer B] | lower solubility |  |
| [1.8(11),15(18),22(25)-tetrakis-(3-N,N,N-trimethylammonium phenoxy)] Zinc Phthalocyaninate Tetrachloride “With Low Isomer B Content” [(I)] |  | does not imply any difference |
